Active and inactive are the calls of the source. How the calls were made is not given here.
System: CCRIS mutagenicity, Ames/micronucleus/aberration tests
Assay: CCRIS mutagenicity studies
[1] = Test System: AMES SALMONELLA TYPHIMURIUM, Strain/Indicator: TA98, Metabolic Activation: NONE, Method: PREINCUBATION
[2] = Test System: AMES SALMONELLA TYPHIMURIUM, Strain/Indicator: TA100, Metabolic Activation: NONE, Method: PREINCUBATION

Nc1cc2c3ccccc3ccc2c2ccccc12
mutagenic call (Test System: AMES SALMONELLA TYPHIMURIUM, Strain/Indicator: TA98 (1,8-DNP6), Metabolic Activation: RAT LIVER, CYTOSOL, AROCLOR 1254, Method: STANDARD PLATE): inactive; negative
mutagenic call (Test System: AMES SALMONELLA TYPHIMURIUM, Strain/Indicator: TA98 (1,8-DNP6), Metabolic Activation: RAT LIVER, MICROSOMES, AROCLOR 1254, Method: STANDARD PLATE): active; positive
mutagenic call (Test System: AMES SALMONELLA TYPHIMURIUM, Strain/Indicator: TA98, Metabolic Activation: FERRET, LIVER, CYTOSOL, Method: STANDARD PLATE): inactive; negative
mutagenic call (Test System: AMES SALMONELLA TYPHIMURIUM, Strain/Indicator: TA98, Metabolic Activation: FERRET, LIVER, MICROSOMES, Method: STANDARD PLATE): inactive; negative
mutagenic call (Test System: AMES SALMONELLA TYPHIMURIUM, Strain/Indicator: TA98, Metabolic Activation: HAMSTER, LIVER, CYTOSOL, Method: STANDARD PLATE): inactive; negative
mutagenic call (Test System: AMES SALMONELLA TYPHIMURIUM, Strain/Indicator: TA98, Metabolic Activation: HAMSTER, LIVER, MICROSOMES, Method: STANDARD PLATE): active; positive
mutagenic call (Test System: AMES SALMONELLA TYPHIMURIUM, Strain/Indicator: TA98, Metabolic Activation: HUMAN, LIVER, CYTOSOL, Method: STANDARD PLATE): active; positive
mutagenic call [1]: active; positive
mutagenic call (Test System: AMES SALMONELLA TYPHIMURIUM, Strain/Indicator: TA98, Metabolic Activation: PIG, LIVER, CYTOSOL, Method: STANDARD PLATE): active; positive
mutagenic call (Test System: AMES SALMONELLA TYPHIMURIUM, Strain/Indicator: TA98, Metabolic Activation: PIG, LIVER, MICROSOMES, Method: STANDARD PLATE): inactive; negative
mutagenic call (Test System: AMES SALMONELLA TYPHIMURIUM, Strain/Indicator: TA98, Metabolic Activation: RAT LIVER, CYTOSOL, AROCLOR 1254, Method: STANDARD PLATE): active; positive
mutagenic call (Test System: AMES SALMONELLA TYPHIMURIUM, Strain/Indicator: TA98, Metabolic Activation: RAT LIVER, MICROSOMES, AROCLOR 1254, Method: STANDARD PLATE): active; positive
mutagenic call (Test System: AMES SALMONELLA TYPHIMURIUM, Strain/Indicator: TA98, Metabolic Activation: RAT, LIVER, CYTOSOL, AROCLOR 1254, Method: STANDARD PLATE): active; positive
mutagenic call (Test System: AMES SALMONELLA TYPHIMURIUM, Strain/Indicator: TA98, Metabolic Activation: RAT, LIVER, CYTOSOL, BENZO[A]PYRENE, Method: STANDARD PLATE): active; positive
mutagenic call (Test System: AMES SALMONELLA TYPHIMURIUM, Strain/Indicator: TA98, Metabolic Activation: RAT, LIVER, CYTOSOL, CLOFIBRATE, Method: STANDARD PLATE): active; positive
mutagenic call (Test System: AMES SALMONELLA TYPHIMURIUM, Strain/Indicator: TA98, Metabolic Activation: RAT, LIVER, CYTOSOL, DEXAMETHASONE, Method: STANDARD PLATE): active; positive
mutagenic call (Test System: AMES SALMONELLA TYPHIMURIUM, Strain/Indicator: TA98, Metabolic Activation: RAT, LIVER, CYTOSOL, ISONIAZID, Method: STANDARD PLATE): active; positive
mutagenic call (Test System: AMES SALMONELLA TYPHIMURIUM, Strain/Indicator: TA98, Metabolic Activation: RAT, LIVER, CYTOSOL, PHENOBARBITAL, Method: STANDARD PLATE): active; positive
mutagenic call (Test System: AMES SALMONELLA TYPHIMURIUM, Strain/Indicator: TA98, Metabolic Activation: RAT, LIVER, MICROSOMES, AROCLOR 1254, Method: STANDARD PLATE): active; positive
mutagenic call (Test System: AMES SALMONELLA TYPHIMURIUM, Strain/Indicator: TA98, Metabolic Activation: RAT, LIVER, MICROSOMES, BENZO[A]PYRENE, Method: STANDARD PLATE): active; positive
mutagenic call (Test System: AMES SALMONELLA TYPHIMURIUM, Strain/Indicator: TA98, Metabolic Activation: RAT, LIVER, MICROSOMES, CLOFIBRATE, Method: STANDARD PLATE): active; positive
mutagenic call (Test System: AMES SALMONELLA TYPHIMURIUM, Strain/Indicator: TA98, Metabolic Activation: RAT, LIVER, MICROSOMES, DEXAMETHASONE, Method: STANDARD PLATE): active; positive
mutagenic call (Test System: AMES SALMONELLA TYPHIMURIUM, Strain/Indicator: TA98, Metabolic Activation: RAT, LIVER, MICROSOMES, ISONIAZID, Method: STANDARD PLATE): active; positive
mutagenic call (Test System: AMES SALMONELLA TYPHIMURIUM, Strain/Indicator: TA98, Metabolic Activation: RAT, LIVER, MICROSOMES, PHENOBARBITAL, Method: STANDARD PLATE): active; positive
mutagenic call (Test System: AMES SALMONELLA TYPHIMURIUM, Strain/Indicator: TA98, Metabolic Activation: RAT, LIVER, MICROSOMES, Method: STANDARD PLATE): active; positive
mutagenic call (Test System: AMES SALMONELLA TYPHIMURIUM, Strain/Indicator: TA98, Metabolic Activation: RAT, LIVER, S-9, AROCLOR 1254, Method: PREINCUBATION): active; positive
mutagenic call [2]: active; positive
mutagenic call (Test System: AMES SALMONELLA TYPHIMURIUM, Strain/Indicator: TA100, Metabolic Activation: NONE, Method: STANDARD PLATE): inactive; negative
mutagenic call (Test System: AMES SALMONELLA TYPHIMURIUM, Strain/Indicator: TA100, Metabolic Activation: RAT, LIVER, MICROSOMES, 6-AMINOCHRYSENE, Method: STANDARD PLATE): inactive; negative
mutagenic call (Test System: AMES SALMONELLA TYPHIMURIUM, Strain/Indicator: TA100, Metabolic Activation: RAT, LIVER, MICROSOMES, AROCLOR 1254, Method: STANDARD PLATE): active; positive
mutagenic call (Test System: AMES SALMONELLA TYPHIMURIUM, Strain/Indicator: TA100, Metabolic Activation: RAT, LIVER, MICROSOMES, Method: STANDARD PLATE): active; positive
mutagenic call (Test System: AMES SALMONELLA TYPHIMURIUM, Strain/Indicator: TA100, Metabolic Activation: RAT, LIVER, S-9, AROCLOR 1254, Method: PREINCUBATION): active; positive
mutagenic call (Test System: AMES SALMONELLA TYPHIMURIUM, Strain/Indicator: TA100, Metabolic Activation: RAT, LIVER, S-9, AROCLOR 1254, Method: STANDARD PLATE): active; positive
mutagenic call (Test System: AMES SALMONELLA TYPHIMURIUM, Strain/Indicator: TA1535, Metabolic Activation: NONE, Method: STANDARD PLATE): inactive; negative
mutagenic call (Test System: AMES SALMONELLA TYPHIMURIUM, Strain/Indicator: TA1535, Metabolic Activation: RAT, LIVER, S-9, AROCLOR 1254, Method: STANDARD PLATE): inactive; negative
mutagenic call (Test System: AMES SALMONELLA TYPHIMURIUM, Strain/Indicator: TA1537, Metabolic Activation: NONE, Method: STANDARD PLATE): inactive; negative
mutagenic call (Test System: AMES SALMONELLA TYPHIMURIUM, Strain/Indicator: TA1538, Metabolic Activation: NONE, Method: STANDARD PLATE): inactive; negative
mutagenic call (Test System: CHINESE HAMSTER OVARY, Strain/Indicator: CHO-K1-BH4 (HGPRT)/6-THIOGUANINE, Metabolic Activation: NONE, Method: STANDARD PLATE): inactive; negative
mutagenic call (Test System: CHINESE HAMSTER OVARY, Strain/Indicator: CHO-K1-BH4 (HGPRT)/6-THIOGUANINE, Metabolic Activation: RAT, LIVER, S-9, AROCLOR 1254, Method: STANDARD PLATE): active; positive
mutagenic call (Test System: CHINESE HAMSTER OVARY, Strain/Indicator: CHO-UV5 (HGPRT)/6-THIOGUANINE, Metabolic Activation: NONE, Method: STANDARD PLATE): inactive; negative
mutagenic call (Test System: CHINESE HAMSTER OVARY, Strain/Indicator: CHO-UV5 (HGPRT)/6-THIOGUANINE, Metabolic Activation: RAT, LIVER, S-9, AROCLOR 1254, Method: STANDARD PLATE): active; positive
mutagenic call (Test System: UDS GUINEA PIG HEPATOCYTES, Strain/Indicator: THY INCORP, Metabolic Activation: NONE, Method: AUTORADIOGRAPHY): active; positive
mutagenic call (Test System: UDS HUMAN HEPATOCYTES, Strain/Indicator: THY INCORP, Metabolic Activation: NONE, Method: AUTORADIOGRAPHY): active; positive
mutagenic call (Test System: UDS MONKEY HEPATOCYTES, Strain/Indicator: THY INCORP, Metabolic Activation: NONE, Method: AUTORADIOGRAPHY): active; positive
mutagenic call (Test System: UDS RAT HEPATOCYTES, Strain/Indicator: THY INCORP, Metabolic Activation: AROCLOR 1254, Method: AUTORADIOGRAPHY): active; positive
mutagenic call (Test System: UDS RAT HEPATOCYTES, Strain/Indicator: THY INCORP, Metabolic Activation: NONE, Method: AUTORADIOGRAPHY): active; positive

O=C1c2ccc([N+](=O)[O-])cc2C(=O)N1CCl
mutagenic call [1]: active; positive
mutagenic call (Test System: AMES SALMONELLA TYPHIMURIUM, Strain/Indicator: TA98, Metabolic Activation: RAT, LIVER, S-9, PCB, Method: PREINCUBATION): active; positive
mutagenic call [2]: active; positive
mutagenic call (Test System: AMES SALMONELLA TYPHIMURIUM, Strain/Indicator: TA100, Metabolic Activation: RAT, LIVER, S-9, PCB, Method: PREINCUBATION): active; positive

CCCCN(CC(C)=O)N=O
mutagenic call (Test System: AMES SALMONELLA TYPHIMURIUM, Strain/Indicator: TA1535, Metabolic Activation: RAT, LIVER, S-9, KC500 OR PHENOBARBITAL, Method: LIQUID SUSPENSION): active; positive
